The text below walks through data of US20050182025A1, “Amidinylphenyl compounds and their use as fungicides” (priority 2002, published 2005).

Common to all, as to assay type: in vivo
For test [1], the system named is Septoria nodorum. Nature of the test: Test C: preventive spray on wheat seedlings, Septoria glume blotch, disease rating. To be noted: wheat seedlings sprayed to run-off, inoculated the following day with Septoria nodorum, 48 h saturated atmosphere then 9 days at 20° C.; test concentration not given. The text has this: (§1) General protocol for preparing test suspensions: Test compounds were first dissolved in acetone in an amount equal to 3% of the final volume and then suspended at the desired concentration (in ppm) in acetone and purified water (50/50 mix) containing 250 ppm of the surfactant Trem® 014 (polyhydric alcohol esters). The resulting test suspensions were then used in the following tests. Spraying a 200 ppm test suspension to the point of run-off on the test plants was the equivalent of a rate of 500 g/ha. The test suspension was sprayed to the point of run-off on wheat seedlings. The following day the seedlings were inoculated with a spore suspension of Septoria nodorum (the causal agent of Septoria glume blotch) and incubated in a saturated atmosphere at 20° C. for 48 h, and then moved to a growth chamber at 20° C. for 9 days, after which disease ratings were made. Results for Tests A-C are given in Table A. In the table, a rating of 100 indicates 100% disease control and a rating of 0 indicates no disease control (relative to the controls). A dash (-) indicates no test results.

In test [2] the test system is Erysiphe graminis f. sp. tritici. Nature of the test: Test A: preventive spray on wheat seedlings, wheat powdery mildew, disease rating. Particulars: wheat seedlings sprayed to run-off, inoculated the following day with Erysiphe graminis f. sp. tritici, rated after 7 days at 20° C.; test concentration not given.
Source text: as §1, with “spore dust” for “spore suspension”, “of Erysiphe graminis f. sp. tritici,” for “of Septoria nodorum”, “of wheat powdery mildew)” for “of Septoria glume blotch)”, “in” for “in a saturated atmosphere at 20° C. for 48 h, and then moved to”, “for 7” for “for 9”

Test [3] has as its system Puccinia recondita. Nature of the test: Test B: preventive spray on wheat seedlings, wheat leaf rust, disease rating. To be noted: wheat seedlings sprayed to run-off, inoculated the following day with Puccinia recondita, 24 h saturated atmosphere then 6 days at 20° C.; test concentration not given.
Source text: as §1, with “Puccinia recondita” for “Septoria nodorum”, “wheat leaf rust)” for “Septoria glume blotch)”, “24” for “48”, “6” for “9”

Consider `CCN(C)C(=S)Nc1cc(Cl)c(OCCCC(C)C)cc1Cl` [compound 124], for which, in test [1], the “Test C disease control rating (100 = 100% disease control, 0 = no disease control relative to the controls)” value is on record as 100%. Further, the “Test A disease control rating (100 = 100% disease control, 0 = no disease control relative to the controls)” value in test [2] amounted to 98%. For the same compound, the “Test B disease control rating (100 = 100% disease control, 0 = no disease control relative to the controls)” value in test [3] is recorded as 98%.
Consider `Cc1cc(OCCCC(C)(C)C)c(Cl)cc1N=CN(C)C` [compound 175], for which the “Test C disease control rating (100 = 100% disease control, 0 = no disease control relative to the controls)” value in test [1] worked out at 100%. Moreover, the “Test A disease control rating (100 = 100% disease control, 0 = no disease control relative to the controls)” value in test [2] turned out to be 97%. The “Test B disease control rating (100 = 100% disease control, 0 = no disease control relative to the controls)” value in test [3] came to 100%.
In the case of `Cc1cc(OCC(=O)C(C)(C)C)c(C)cc1N=CN(C)C` [Compound 4], the “Test C disease control rating (100 = 100% disease control, 0 = no disease control relative to the controls)” value in test [1] is 0%. Besides, the “Test A disease control rating (100 = 100% disease control, 0 = no disease control relative to the controls)” value in test [2] is 0%. Further, in test [3], the “Test B disease control rating (100 = 100% disease control, 0 = no disease control relative to the controls)” value was 92%.
As for `CC(=Nc1cc(Cl)c(OCCCC(C)C)c(Cl)c1C)N(C)C` [compound 116], in test [1], the “Test C disease control rating (100 = 100% disease control, 0 = no disease control relative to the controls)” value amounted to 100%. Besides, the “Test A disease control rating (100 = 100% disease control, 0 = no disease control relative to the controls)” value in test [2] is recorded as 87%. Moreover, in test [3], the “Test B disease control rating (100 = 100% disease control, 0 = no disease control relative to the controls)” value turned out to be 92%.
For `Cc1cc(OCCOC(C)(C)C)c(C)cc1N=CN(C)C` [Compound 41], the “Test C disease control rating (100 = 100% disease control, 0 = no disease control relative to the controls)” value in test [1] is 47%. Besides, in test [2], the “Test A disease control rating (100 = 100% disease control, 0 = no disease control relative to the controls)” value turned out to be 79%. The “Test B disease control rating (100 = 100% disease control, 0 = no disease control relative to the controls)” value in test [3] was determined as 99%.
For `CCCCCC(CCCCC)Oc1cc(C)c(N=CN(C)C)cc1C` [Compound 30] the same measures were 0%, 0% and 100%.
On to `Cc1cc(OC(CCC(C)C)CCC(C)C)c(C)cc1N=CN(C)C` [Compound 35], for which the “Test C disease control rating (100 = 100% disease control, 0 = no disease control relative to the controls)” value in test [1] is recorded as 100%. In test [2], the “Test A disease control rating (100 = 100% disease control, 0 = no disease control relative to the controls)” value was determined as 95%. The “Test B disease control rating (100 = 100% disease control, 0 = no disease control relative to the controls)” value in test [3] turned out to be 100%.
Take `Cc1cc(SCCCC(C)C)c(C)cc1N=CN(C)C` [compound 156]: in test [1], the “Test C disease control rating (100 = 100% disease control, 0 = no disease control relative to the controls)” value worked out at 100%. Further, the “Test A disease control rating (100 = 100% disease control, 0 = no disease control relative to the controls)” value in test [2] is 93%. Further, the “Test B disease control rating (100 = 100% disease control, 0 = no disease control relative to the controls)” value in test [3] was 100%.
Regarding `CCN(C)C=Nc1cc(Cl)c(OCCC[Si](C)(C)C)cc1C` [compound 54], in test [1], the “Test C disease control rating (100 = 100% disease control, 0 = no disease control relative to the controls)” value is recorded as 100%. In addition, the “Test A disease control rating (100 = 100% disease control, 0 = no disease control relative to the controls)” value in test [2] was determined as 100%. Further, in test [3], the “Test B disease control rating (100 = 100% disease control, 0 = no disease control relative to the controls)” value stood at 100%.
For `Cc1cc(OC(C)CCC(C)C)c(C)cc1N=CN(C)C` (stereo not drawn) [Compound 32], the “Test C disease control rating (100 = 100% disease control, 0 = no disease control relative to the controls)” value in test [1] amounted to 95%. In addition, the “Test A disease control rating (100 = 100% disease control, 0 = no disease control relative to the controls)” value in test [2] is 97%. Also, in test [3], the “Test B disease control rating (100 = 100% disease control, 0 = no disease control relative to the controls)” value worked out at 100%.
For `C=CCN(C)C(=S)Nc1cc(C)c(OCCC[Si](C)(C)C)cc1C` [compound 86] the same measures were 100%, 100% and 99%.
For `CC(C)=CCCC(C)=CCOc1cc(C)c(N=CN(C)C)cc1C` [Compound 2] the same measures were 36%, 95% and 100%.
Turning to `Cc1cc(OCCCO[Si](C)(C)C(C)(C)C)c(C)cc1N=CN(C)C` [Compound 27], the “Test C disease control rating (100 = 100% disease control, 0 = no disease control relative to the controls)” value in test [1] came to 100%. The “Test A disease control rating (100 = 100% disease control, 0 = no disease control relative to the controls)” value in test [2] came out at 99%. Moreover, in test [3], the “Test B disease control rating (100 = 100% disease control, 0 = no disease control relative to the controls)” value came to 100%.
As to `CCN(C)C=Nc1cc(C)c(OCCCC(C)(C)C)cc1C` [compound 199], the “Test C disease control rating (100 = 100% disease control, 0 = no disease control relative to the controls)” value in test [1] was found to be 100%. Besides, in test [2], the “Test A disease control rating (100 = 100% disease control, 0 = no disease control relative to the controls)” value came to 100%. For the same compound, the “Test B disease control rating (100 = 100% disease control, 0 = no disease control relative to the controls)” value in test [3] was 100%.
On to `Cc1cc(OCCCC(C)(C)C)c(C)cc1N=CN(C)C` [Compound 50], for which the “Test C disease control rating (100 = 100% disease control, 0 = no disease control relative to the controls)” value in test [1] was 100%. The “Test A disease control rating (100 = 100% disease control, 0 = no disease control relative to the controls)” value in test [2] was 99%. Moreover, the “Test B disease control rating (100 = 100% disease control, 0 = no disease control relative to the controls)” value in test [3] worked out at 67%.
As to `CCC(CCC(C)C)Oc1cc(C)c(N=C(C)N(C)C)cc1C` (stereo not drawn) [compound 100], the “Test C disease control rating (100 = 100% disease control, 0 = no disease control relative to the controls)” value in test [1] is reported as 76%. For the same compound, the “Test A disease control rating (100 = 100% disease control, 0 = no disease control relative to the controls)” value in test [2] was found to be 0%. Moreover, the “Test B disease control rating (100 = 100% disease control, 0 = no disease control relative to the controls)” value in test [3] amounted to 86%.
For `CCCCC(CCC)Sc1cc(C)c(N=CN(C)C)cc1C` (stereo not drawn) [compound 160] the same measures were 0%, 0% and 55%.
For `CC(C)=CCCC(C)=CCCC(C)=CCOc1cc(C)c(N=CN(C)C)cc1C` [Compound 3] the same measures were 0%, 0% and 87%.
For `CCN(C)C(=Nc1cc(C)c(OCCC[Si](C)(C)C)cc1C)C(=O)OC` [compound 131] the same measures were 96%, 67% and 100%.
As to `Cc1cc(OCC=CC(C)(C)C)c(C)cc1N=CN(C)C` [Compound 40], the “Test C disease control rating (100 = 100% disease control, 0 = no disease control relative to the controls)” value in test [1] worked out at 100%. Further, the “Test A disease control rating (100 = 100% disease control, 0 = no disease control relative to the controls)” value in test [2] stood at 97%. Moreover, the “Test B disease control rating (100 = 100% disease control, 0 = no disease control relative to the controls)” value in test [3] stood at 100%.
On to `Cc1cc(NCCCC(C)C)c(C)cc1N=CN(C)C` [compound 154], for which, in test [1], the “Test C disease control rating (100 = 100% disease control, 0 = no disease control relative to the controls)” value stood at 47%. Further, the “Test A disease control rating (100 = 100% disease control, 0 = no disease control relative to the controls)” value in test [2] is 0%. Further, in test [3], the “Test B disease control rating (100 = 100% disease control, 0 = no disease control relative to the controls)” value is on record as 0%.
For `CCN(C)C(=S)Nc1cc(C)c(OCCCC(C)(C)C)c(Cl)c1C` [compound 139], the “Test C disease control rating (100 = 100% disease control, 0 = no disease control relative to the controls)” value in test [1] stood at 99%. For the same compound, the “Test A disease control rating (100 = 100% disease control, 0 = no disease control relative to the controls)” value in test [2] is listed as 100%. For the same compound, the “Test B disease control rating (100 = 100% disease control, 0 = no disease control relative to the controls)” value in test [3] turned out to be 100%.
With `CCN(CC)C(=S)Nc1cc(Cl)c(OCCCC(C)C)cc1C` [compound 113], in test [1], the “Test C disease control rating (100 = 100% disease control, 0 = no disease control relative to the controls)” value came to 100%. In addition, the “Test A disease control rating (100 = 100% disease control, 0 = no disease control relative to the controls)” value in test [2] was 91%. The “Test B disease control rating (100 = 100% disease control, 0 = no disease control relative to the controls)” value in test [3] stood at 99%.
For `CCN(C)C(=S)Nc1cc(Cl)c(OCCCC(C)(C)C)c(Cl)c1C` [compound 122] the same measures were 0%, 99% and 100%.
